# Results published in publication PMC10610016, “New Hybrid Compounds Incorporating Natural Products as Multifunctional Agents against Alzheimer’s Disease” (Pharmaceutics, 2023).
# Several values for one entry are separate records, joined by “and”; a condition that tells them apart may be missing. Equal values may be shown once. Read-outs that look alike come from different tables or passages of the source.
# Assays:
# [1] = DPPH radical scavenging assay; type: biochemical; settings: for %AA (percentage of antioxidant activity), DPPH: compound 100 µM, DPPH 60 µM in MeOH, 1 h; for EC50 / TEAC (Trolox equivalent antioxidant capacity), DPPH: mean ± SEM of three independent experiments
# Protocol: The DPPH assay was carried out in a 96-microwell plate according to a previously described protocol. In brief, DPPH solution (60 µM in MeOH) was added to studied compounds or MeOH as the control. The 96-microwell plate was incubated (in the dark, at r.t. for 1 h) and the absorbance values were read at 517 nm by a SPECTROstarNano (220–1000 nm) UV–Vis spectrophotometer, Ortenberg, Germany. During the first screening, all compounds were tested ad 100 µM, then for compounds 2a–c the EC50 (effective concentration), the concentration of substrate that causes a 50% reduction in the DPPH colour, was calculated.
# All experiments were made in triplicate. The percentage of the antioxidant activity (%AA) of the compounds was determined according to Equation (1):%AA = ((AbsDPPH − Abssample)/AbsDPPH) × 100(1)
# AbsDPPH is the absorbance of DPPH solution, and Abssample is the absorbance of DPPH solution containing the tested compound.
# Each concentration was tested in triplicate and the EC50 value was reported as the mean ± the standard error of the mean (SEM) of three independent experiments.
# ABTS assay = type: biochemical; settings: for radical scavenger / antioxidant activity, ABTS: compound 100 µM; for EC50 / TEAC, ABTS: mean ± SEM of three independent experiments
# Protocol: The ABTS assay was performed according to the methods reported in literature. Briefly, 7 mM of ABTS was mixed with 2.45 mM of K2S2O8 solution, ratio 1:1, in 10 mM phosphate buffer (pH 7.4). The mixture was incubated in a dark box at r.t. for 12 h, then the stock solution was diluted until the absorbance was 0.70 ± 0.02 at 734 nm.
# In a 96-well plate, 190 µL ABTS working solution and 10 µL sample solution (compounds 2a–c, 3a–c at concentration of 100 μM) were mixed and the absorbance was measured (734 nm) using a SPECTROstarNano (220–1000 nm) UV–Vis spectrophotometer, Ortenberg, Germany. Then, for compounds 2a–c the EC50 was calculated and the values were expressed in TEAC equivalents. Each concentration was tested in triplicate and the EC50 was reported as the mean ± SEM of three independent experiments.
# [2] = UV–Vis metal binding study, Cu2+ (mole ratio method); type: physicochemical; settings: for stoichiometry for the Cu2+–ligand complex (molar fraction analysis): ligand 20 µM, Cu2+ 0 to 80 µM; for shift in UV spectrum in the presence of Cu2+ (first screening): ligand 20 μM, Cu2+ 80 µM, MeOH
# Protocol: (§1) The synthesized compounds were tested for their metal chelating effect through spectroscopic measurements. The UV–Vis absorbance of compounds was recorded in the absence and presence of metal ions using a UV–Vis spectrometer (a SPECTROstarNano (220–1000 nm), Ortenberg, Germany. The experiment was performed in 96-well plates and each experiment was made in triplicates. A fixed amount of investigated ligand (20 μM) solubilized in MeOH was mixed with increasing concentration of Cu^2+ (CuCl2), Fe^2+ (FeSO4) and Zn^2+ (ZnCl2) from 0 to 80 μM and incubated for 30 min at room temperature (r.t.). The absorbance change was monitored at wavelengths ranging from 220 to 700 nm. The stoichiometry of studied compounds for Cu^2+ and Fe^2+ complexes was determined by employing the mole ratio method.
# [3] = Colorimetric Cu2+ chelation with pyrocatechol violet (PV); type: physicochemical; settings: compound 200 µM, CuSO4 200 µM, PV 200 µM
# Protocol: (§2) Due to a non-measurable UV absorbance for compounds 4a and 5c, a different protocol using pyrocatechol violet (PV) was applied. The compounds (200 µM) incubated for 10 min with CuSO4 (200 µM), after 200 µM PV was added and the plate was incubated at 25 °C for 20 min. The absorption spectra were recorded. The same protocol was used for Fe^2+ (FeSO4) in presence of ferrozine.
# [4] = Colorimetric Fe2+ chelation with ferrozine; type: physicochemical; settings: FeSO4, ferrozine
# Protocol: as §2
# [5] = UV–Vis metal binding study, Fe2+ (mole ratio method); type: physicochemical
# Protocol: as §1
# Human Plasma TTR = biological target: T1, Human Plasma TTR (Homo sapiens, UniProt P02766); assay: ANS competitive binding (displacement) assay; settings: TTR 8 µM, ANS 16 µM
# T1 construct: purchased Merck Millipore, Molsheim, France; host or cells: human plasma
# Protocol: The binding of ANS (8-anilino-1-naphthalenesulfonic acid), Sigma-Aldrich (St. Louis, MO, USA) and its displacement by the three selected compounds 2a–c were studied using Human Plasma TTR (Merck Millipore, Molsheim, France) according to the protocol previously described. Briefly, TTR (8 µM) was incubated with ANS (16 µM) at r.t. for 15 min in 96-well plates. Then, compounds 2a–c at concentrations of 100 µM were added. After 10 min, the fluorescent emission spectra (400–540 nm) were recorded exciting at 280 nm using Molecular Devices SpectraMax Gemini XPS plate reader, (San Jose, CA, USA). For compounds 2a, the IC50 was calculated and value was expressed as the mean ± SEM of the triplicate. All experiments were made in triplicate and, the fluorescence increases of ANS bound to TTR solution compared to its control without TTR, and TTR alone, in phosphate buffer, were used as a control.
# Aβ1-40 = biological target: T2, Aβ1-40 (Homo sapiens, UniProt P05067); assay: Thioflavin T (ThT) fluorescence assay of Aβ1-40 fibril formation; type: biochemical; settings: for inhibition of Aβ1-40 fibril formation (ThT): Aβ1-40 10 µM
# T2 construct: Aβ1-40 was obtained from Bachem (Bubendorf, Switzerland); purchased Bachem (Bubendorf, Switzerland)
# Protocol: Aβ1-40 was obtained from Bachem (Bubendorf, Switzerland). To remove preformed aggregates, it was dissolved during 15–20 min at r.t. in 1% NH4OH to give a concentration of 2 mg/mL, followed by immediate lyophilisation. The Aβ1-40 peptide was then dissolved in an aqueous 1% ammonia solution to a concentration of 1 mM and then, just prior to use, was diluted to 0.2 mM with 10 mM Tris-HCl, 100 mM NaCl buffer (pH 7.4). Compounds (2a–c) were dissolved in DMSO (4.9 mM), while TTR in phosphate buffer 20 mM buffer (pH 7.4) at 1 mM concentration. ThT fluorescence was measured to evaluate the development of Aβ1-40 fibrils over time using a fluorescence plate reader (Vantastar, BMG lab-tech, Ortenberg, Germany) with standard 96-well black microliter plates. The ThT fluorescence intensity was recorded by using excitation/emission settings at 440−15 nm/480−15nm for 21 h and applying a double orbital shaking of 10 s before the first cycle. Experiments were triggered by adding Aβ1-40 achieving a final concentration of 10 μM into a mixture containing 40 μM ThT in 10 mM Tris-HCl, 100 mM NaCl buffer (pH 7.4) with and without the studied compounds (10 μM) at 25 °C, and with and without CuCl2 (10 µM). When TTR was assessed in the presence of compound 2a, the ratio between TTR and 2a was adjusted to 1:2 (TTR:2a) in order to let the compound interacting with both hydrophobic pockets. A time of 3 h of incubation was employed before adding the solution into the well. The F reduction is depicted as the intensity of experimental fluorescence plateau observed with the studied compound relative to the value obtained without the compound and is quantified as the following percentage: ((F Aβ1-40+compound − F Aβ1-40)/(F Aβ1-40)) × 100. The data of fluorescence intensity come from at least two independent experiments, where each condition has been performed in duplicate, in the case of the presence of TTR (10 µM), or triplicate, in the case of the absence of TTR (10 µM), respectively. The values are given as averaged percentage ± SEM.
# [6] = set-up: method as in PMID 31055242; settings: literature value; cited from earlier work
# [7] = set-up: method as in PMID 31055242; settings: literature value; cited from earlier work; remark: listed apart in the source
# T2 sequence (P05067 672-711 limits assumed): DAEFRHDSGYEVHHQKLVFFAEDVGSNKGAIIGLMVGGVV
compound,measurement,setting,value
O=C(/C=C/c1ccc(O)c(O)c1)NOCc1ccc(C(F)(F)F)cc1 [Compound 2c],"%AA (percentage of antioxidant activity), DPPH",[1],96% and 58%
same,EC50,[1],6 ± 0.1 µM
same,"TEAC (Trolox equivalent antioxidant capacity), DPPH",[1],10.4 ± 0.4 µM
same,"radical scavenger / antioxidant activity, ABTS",ABTS assay,97.3%
same,EC50,ABTS assay,22.9 ± 0.5 µM
same,"TEAC, ABTS",ABTS assay,11.8 ± 0.02 µM
same,melting point,,188 to 190 °C
"O=C(/C=C/c1ccc(O)cc1O)NOCc1ccc(C(F)(F)F)cc1 [Compound 3c, (E)-3-(2,4-dihydroxyphenyl)-N-((4-(trifluoromethyl)benzyl)oxy)acrylamide]","radical scavenger / antioxidant activity, ABTS",ABTS assay,65%
same,melting point,,176 to 178 °C
"O=C(C=Cc1ccccc1)NOCc1ccc(C(F)(F)F)cc1 [Compound 1c, N-((4(trifluoromethyl)benzyl)oxy)cinnamamide]",melting point,,148 to 150 °C
"O=C(C=Cc1ccccc1)NOCc1cccc(C(F)(F)F)c1 [Compound 1b, N-((3-(trifluoromethyl)benzyl)oxy)cinnamamide]",melting point,,91 to 93 °C
"CCCC(CCC)C(=O)NOCc1ccc(C(F)(F)F)cc1 [Compound 4c, 2-propyl-N-((4-(trifluoromethyl)benzyl)oxy)pentanamide]",melting point,,78 to 80 °C
"O=C(/C=C/c1ccc(O)cc1O)NOCc1ccccc1C(F)(F)F [Compound 3a, (E)-3-(2,4-dihydroxyphenyl)-N-((2-(trifluoromethyl)benzyl)oxy)acrylamide]",stoichiometry for the Cu2+–ligand complex (molar fraction analysis),[2],around 2
same,shift in UV spectrum in the presence of Cu2+ (first screening),[2],significant shift
same,"%AA (percentage of antioxidant activity), DPPH",[1],59%
same,"radical scavenger / antioxidant activity, ABTS",ABTS assay,68%
same,melting point,,165 to 167 °C
"O=C(CCCC[C@@H]1CCSS1)NOCc1ccccc1C(F)(F)F [Compound 5a, (R)-5-(1,2-dithiolan-3-yl)-N-((2-(trifluoromethyl)benzyl)oxy)pentanamide]","interaction with Cu2+, colorimetric method with PV",[3],slight shift
same,"interaction with Fe2+, colorimetric method with ferrozine",[4],No interaction
"O=C(/C=C/c1ccc(O)c(O)c1)NOCc1ccccc1C(F)(F)F [Compound 2a, (E)-3-(3,4-dihydroxyphenyl)-N-((2-(trifluoromethyl)benzyl)oxy)acrylamide]",shift in UV spectrum in the presence of Cu2+ (first screening),[2],significant shift
same,molar fraction of the 2a–Fe2+ complex,"[5]; Fe2+ 0 to 30 µM, absorbance changes at 330 nm",1
same,change in UV spectrum when Fe2+ was added (first screening),"[5]; ligand 20 μM, Fe2+ 80 µM, MeOH",weak change
same,"%AA (percentage of antioxidant activity), DPPH",[1],95%
same,EC50,[1],8.9 ± 0.2 µM
same,"TEAC (Trolox equivalent antioxidant capacity), DPPH",[1],12.4 ± 0.4 µM
same,"radical scavenger / antioxidant activity, ABTS",ABTS assay,99.1%
same,EC50,ABTS assay,9.9 ± 0.2 µM
same,"TEAC, ABTS",ABTS assay,11.3 ± 0.1 µM
same,IC50,Human Plasma TTR; mean ± SEM of triplicate,31.9 µM
same,displacement of ANS from TTR,Human Plasma TTR; compound 100 µM,71%
same,effect on Aβ1-40 fibril formation (ThT),"Aβ1-40; TTR 10 µM pre-incubated with 2a 20 µM (1:2 TTR/2a), without Cu2+",slight positive effect
same,inhibition of Aβ1-40 fibril formation (ThT),"Aβ1-40; with Cu2+ 10 µM, compound 10 µM",completely inhibition of the fibril formation
same,inhibition of Aβ1-40 fibril formation (ThT),"Aβ1-40; without Cu2+, compound 10 µM (1:1 ratio)",discrete inhibitory activity
same,melting point,,80 to 82 °C
"O=C(/C=C/c1ccc(O)cc1O)NOCc1cccc(C(F)(F)F)c1 [Compound 3b, (E)-3-(2,4-dihydroxyphenyl)-N-((3-(trifluoromethyl)benzyl)oxy)acrylamide]","%AA (percentage of antioxidant activity), DPPH",[1],60%
same,"radical scavenger / antioxidant activity, ABTS",ABTS assay,67%
same,melting point,,157 to 158 °C
O=C(O)/C=C/c1ccc(O)c(O)c1 [caffeic acid],EC50,[6],13.3 µM
same,EC50,[7],10.9 µM
"O=C(C=Cc1ccccc1)NOCc1ccccc1C(F)(F)F [Compound 1a, N-((2-(trifluoromethyl)benzyl)oxy)cinnamamide]",stoichiometry for the Cu2+–ligand complex (molar fraction analysis),[2],1.0
same,shift in UV spectrum in the presence of Cu2+ (first screening),[2],significant shift
same,melting point,,91 to 93 °C
"CCCC(CCC)C(=O)NOCc1ccccc1C(F)(F)F [Compound 4a, 2-propyl-N-((2-(trifluoromethyl)benzyl)oxy)pentanamide]","interaction with Cu2+, colorimetric method with PV",[3],slight shift
same,"interaction with Fe2+, colorimetric method with ferrozine",[4],No interaction
same,melting point,,73 to 75 °C
"CCCC(CCC)C(=O)NOCc1cccc(C(F)(F)F)c1 [Compound 4b, 2-propyl-N-((3-(trifluoromethyl)benzyl)oxy)pentanamide]",melting point,,74 to 76 °C
